Laboratory results published in US20230226135A9, “ACETYLCHOLINE MODULATION OF IMMUNE FUNCTION” (BCell Solutions, Inc., priority 2019, published 2023).
“Also recorded” adds a separate entry of the source.

Experiments:
[1] = Dosing formulation storage and stability; type: physicochemical; settings: 5 mg/mL DMSO stock
Method: Test Article Formulation Instructions & Calculations: Peptide dosing solution (0.2 mg/mL) was made fresh daily within 1 hour of use by diluting 0.09 mL of 5 mg/mL DMSO stock into 2.11 mL sterile saline. DMSO stock was kept at 4 C, then refrozen (to avoid repeated freeze-thaw cycles). Still, stock was relatively “solid” even at 4 C.
MLA antagonist dosing solution (0.6 mg/mL) was made on Day 2 by diluting the entire 5 mg in the sealed vial with 8.3 mL of sterile saline and aliquoting out ˜1.1 mL in each of seven 2 mL cryovials and freezing at −20 C. Four vials were used in the experiment, each thawed within 1 hour of use. Three vials remain frozen.
Dosing Formulations and Vehicle Storage & Stability: Saline vehicle is stable at 4 C for months. Peptide dosing solutions were made up and used fresh daily. […] MLA frozen “stock” solutions were stable for up to 1 month.

[2] = tested on: blood brain barrier (BBB); experiment: Intravital microscopy of BBB permeability and lymphocyte adhering/rolling in pial venules; type: in vivo, C57 BL/6J mice
Description: Whether intranasal infection with Streptococcus pyogenes would induce blood-brain barrier permeability in C57 BL/6J mice by a TLR-dependent mechanism was examined. Immediately following craniotomy, mice were placed under an intravital microscope to study vascular permeability and leukocytes. Permeability of cerebral blood vessels was observed using FITC-dextran fluorescent dye and, tracing of leukocytes is observed by labeling such cells with Rhodamine-6G. Intranasal infection with Streptococcus pyogenes (gram positive) increased BBB permeability (FIG. 4) and the number of adherent or rolling lymphocytes (FIG. 4) within 24 hours post-infection, compared to saline treated controls.
Methods: To test the hypothesis that intranasal infection may increase BBB permeability, we exposed mice to GAS via intranasal infection with Streptococcus pyogenes (GAS). We assessed BBB permeability using intravital microscopy, and we characterized the immune response to GAS using flow cytometric analysis of nasal associated lymphoid tissue (NALT), spleen, and brain.
Intranasal infection: Isoflurane gas was employed to briefly anesthetize mice (1-2 minutes). Once anesthetized, 7.5 uL of streptococcal bacterial suspension (OD600=0.5-0.6) was placed on each nares (outer nostril) of mouse. Control mice received intranasal inoculation with vehicle (PBS). The droplets were inhaled into nasal sinuses. This small volume avoids inoculation of the lungs, but reproducibly results in colonization of nasal-associated lymphoid tissue (NALT, Park 2003; Wang 2010).
Intraperitoneal injection: The TLR 1/2 agonist, Pam-3-Cys (25 ug/mouse; Pam3CSK4, InvivoGen, San Diego Calif.) was intraperitoneally (right side) injected into mice 24 hours before intravital microscopy. P3C causes immune cell activation and polycolonal expansion of B-lymphocytes by Toll-Like receptor ligation (Newell 2010). Control mice received equal volume of vehicle (PBS) intraperitoneally.
MHC class II-targeted proprietary peptide (TPP, Elim Biopharmaceuticals Inc., Hayward Calif.; also see Newell 2010) was administered intraperitoneally (5 ug/mouse, left side), sometimes in conjunction with P3C (right side). TPP was dissolved in DMSO for a final concentration of 2.5% DMSO in PBS. Control mice received vehicle (2.5% DMSO in PBS) intraperitoneally.
Preparation of Mice: Mice were anesthetized with an (i.p.) injection of 50% urethane (Sigma-Aldrich, U2500) in PBS ([…]) and maintained on heating pad. Anesthetic plane was assessed throughout preparation and experiments, by response to toe pinch. If needed, urethane supplement was given at 10% of original dose volume. To prepare mice tails for intravenous (i.v.) dye injection we maintained anesthetized mice on a heating pad for 10-15 minutes, and then briskly wiped tails (toward tail-end) with 70% ethanol wipes to remove scales/hair and increase vasodilation. Immediately following tail wiping, Fluorescein dextran 10 kDa (10 mg/mL, Sigma-Aldrich, FD10S) was administered (2 uL/g mouse) via right lateral tail vein and, Rhodamine 6G (0.2 mg/mL, Sigma-Aldrich, 83697) was administered (1.6 uL/g mouse) via left lateral tail vein. When needed, tail was wiped multiple times to ensure clear visualization of tail veins. Following successful (i.v.) injection of dyes, mice underwent craniotomy.
Craniotomy: A craniotomy (removal of a small area of skull) was performed to expose the cerebrum and allow imaging of cerebral microvasculature (specifically pial vessels of pia mater). First, an incision across the midline of the scalp was made to expose the right parietal bone. The skull was then carefully marked with a waterproof marker, designating the area, 1 mm posterior from the Bregma and 4 mm lateral from the midline, to be removed (craniotomy diameter: 2.5 mm). Next, the craniotomy was performed with a drill ensuring the dura mater was not cut. […]

IL17a = experiment: Preeclampsia model in pregnant mice (TLR agonists), IL17; type: in vivo; settings: PolyI:C or R837 induced; CAP i.p. (2 mg/kg, gestational day 13 elsewhere in the source)
Method: FIG. 9. CAP reduces IL-17 production in a model of preeclampsia. Pregnant mice were treated with the TLR3 or […] agonists to induce symptoms of preeclampsia, followed by CAP treatment.
In a separate study, preeclampsia was induced in pregnant mice by injection of either the toll-like receptor 3 (TLR3) agonist, PolyI:C, or with the toll-like receptor 8 ([…]) agonist R837. […] It is pertinent to note that this power issue has been corrected.
Preeclampsia, a disease suffered by pregnant woman that is characterized by high blood pressure and signs of damage to other organ systems, most often the liver and kidneys, is often accompanied by inflammation. […] Preeclampsia is also associated with an elevated TH17 response, including elevated IL17a, and elevated IL17a is associated with human and experimental hypertension and poor perinatal outcomes. […] Therefore, the anti-inflammatory effects of CAP were associated with improved outcomes in this model.

CLIP+ B cells = experiment: CFA-induced arthritis model, CAP depletion of B cells with or without α7nAChR antagonist; type: in vivo, mice
Method: FIGS. 11A-11B. […] In this study, CAP was administered at 3 days after CFA, then once daily every 3 days, until day 10 after CFA.
The next series of experiments are focused on the effects of CAP on splenic immune cells. […] As part of this experiment, the mice were co-treated with CAP and the alpha-7 nicotinic acetylcholine receptor (α7nAChR) antagonist, methyllycaconitine (MCA).

CD8+ T cells = experiment: CAP-induced expansion of CD8+ T cells with or without α7nAChR antagonist; type: in vivo; settings: CAP treatment
[3] = tested on: peripheral pro-inflammatory cells; experiment: TBI (fluid percussion injury), peripheral pro-inflammatory cells; type: in vivo; settings: TBI / FPI
Description: FIG. 17. CAP reduces peripheral pro-inflammatory cells. TBI is traumatic brain injury. FPI is fluid percussion injury.

[4] = TPP 5 ug/mouse i.p., 24 hours, listed as TPP

FRIMAVLAS [CAP, α7nAChR agonist]
stability of DMSO stock [1]: stable for a few months | P3C-induced lymphocyte rolling ([2]; TPP 5 ug/mouse i.p. with P3C, 24 hours): reduced | P3C-induced lymphocyte adhering ([2]; TPP 5 ug/mouse i.p. with P3C, 24 hours, listed as TPP): reduced; also recorded: significantly reversed | streptococcal infection-induced lymphocyte adhering [2, 4]: significantly reversed | streptococcal infection-induced lymphocyte rolling [2, 4]: reversed; also recorded: reduced | size of adherent cells ([2]; TPP in infected or P3C treated mice): did not attenuate | elevated IL17 (IL17a) (IL17a): significantly reduced | CFA-induced B cell expansion (CLIP+ B cells; 3x CAP treatment): reversed | number of CLIP+ B cells (pro-inflammatory B cell populations) (CLIP+ B cells; CAP from 3 days after CFA, once every 3 days until day 10): significantly reduced; also recorded: selectively depletes | expansion of CD8+ T cells (CD8+ T cells): induce the expansion; also recorded: induces expansion | peripheral pro-inflammatory cells [3]: reduces
